From the supplement of paper PMC10307832

Legend:
Assay in all cases: relative viability (nuclei count vs DMSO), 5 days (fraction); higher = more cells survive
[1] = compound: C1COCCN1C2=NC(=NC3=C2OC4=C3C=CC=N4)C5=CC(=CC=C5)NC(=O)C6=CN=C(C=C6)N + O=C(c1cc(Cc2n[nH]c(=O)c3ccccc23)ccc1F)N1CCN(C(=O)C2CC2)CC1 [Olaparib] (partner 8 µM)
Outline: (§1)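 The day after seeding in 1536-well plates, lung cancer cell lines were treated by pin tool with a single drug, or with a fixed anchor-drug dose together with five library-drug doses (not always all listed) in √10 steps. After 5 days, a combined fix-and-stain solution (final 0.05% Triton X-100, 1% formaldehyde, 1 ug/ml Hoechst) was added. Nuclei counted on 4× images gave relative viability as treated counts over vehicle counts, reported as the median of duplicate plates.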

[2] = compound: CN1CCC(CNc2ccc3ncc(-c4cccc(OC(F)(F)F)c4)n3n2)CC1 [SGI-1776] + CC(=O)Nc1cccc(-n2c(=O)n(C3CC3)c(=O)c3c(Nc4ccc(I)cc4F)n(C)c(=O)c(C)c32)c1 [Trametinib] (partner 0.02 µM)
Outline: as §1

[3] = compound: Nc1ccccc1NC(=O)c1ccc(CNC(=O)OCc2cccnc2)cc1 [Entinostat] + CS(=O)(=O)CCNCc1ccc(-c2ccc3ncnc(Nc4ccc(OCc5cccc(F)c5)c(Cl)c4)c3c2)o1 [Lapatinib] (partner 2 µM)
Outline: as §1

[4] = compound: Nc1ccccc1NC(=O)c1ccc(CNC(=O)OCc2cccnc2)cc1 [Entinostat] + Cc1nc(Nc2ncc(C(=O)Nc3c(C)cccc3Cl)s2)cc(N2CCN(CCO)CC2)n1 [Dasatinib] (partner 0.075 µM)
Outline: as §1

UMC-11
relative viability ([1]; first compound 0.02 µM): 0.374 | relative viability ([1]; first compound 0.06325 µM): 0.37 | relative viability ([1]; first compound 0.2 µM): 0.354 | relative viability ([1]; first compound 0.6325 µM): 0.359 | relative viability ([1]; first compound 2 µM): 0.246 | relative viability ([2]; first compound 0.08 µM): 0.719 | relative viability ([2]; first compound 0.8 µM): 0.684 | relative viability ([2]; first compound 2.53 µM): 0.787 | relative viability ([2]; first compound 8 µM): 0.432 | relative viability ([3]; first compound 0.02 µM): 1.17 | relative viability ([3]; first compound 0.06325 µM): 1.21 | relative viability ([3]; first compound 0.2 µM): 1.28 | relative viability ([3]; first compound 0.6325 µM): 0.222 | relative viability ([3]; first compound 2 µM): 0.173 | relative viability ([4]; first compound 0.02 µM): 0.468 | relative viability ([4]; first compound 0.06325 µM): 0.478 | relative viability ([4]; first compound 0.2 µM): 0.399 | relative viability ([4]; first compound 0.6325 µM): 0.193 | relative viability ([4]; first compound 2 µM): 0.17
